From ChEMBL document CHEMBL4219268, “Synthesis and evaluation of N-(4-benzylphenyl)piperazines as VGF inducers” (Bioorg Med Chem Lett, 2018)

How the values were obtained:
SH-SY5Y [1] = test: Cytoprotective activity against tunicamycin-induced ER stress in human SH-SY5Y cells assessed as cell viability at 3 uM preincubated for 1 hr followed by tunicamycin addition measured after 48 hrs by WST-8 assay (reference value: 45 +/- 6.6%); type: functional; details: read-out: Activity
[2] = Drug metabolism in human liver microsomes assessed as metabolic rate per mg protein at 1 uM measured at 3 to 30 mins by LC-MS/MS analysis; type: ADME, microsome
CYP3A4 = CYP3A4 (Homo sapiens, UniProt P08684); test: Inhibition of CYP3A4 in human liver microsomes using testosterone as substrate assessed as residual activity at 10 uM preincubated for 30 mins followed by substrate addition measured after 10 mins in presence of NADPH by LC-MS/MS analysis; type: ADME; details: probe testosterone, read-out: Activity
Sequence of CYP3A4 (P08684 whole entry): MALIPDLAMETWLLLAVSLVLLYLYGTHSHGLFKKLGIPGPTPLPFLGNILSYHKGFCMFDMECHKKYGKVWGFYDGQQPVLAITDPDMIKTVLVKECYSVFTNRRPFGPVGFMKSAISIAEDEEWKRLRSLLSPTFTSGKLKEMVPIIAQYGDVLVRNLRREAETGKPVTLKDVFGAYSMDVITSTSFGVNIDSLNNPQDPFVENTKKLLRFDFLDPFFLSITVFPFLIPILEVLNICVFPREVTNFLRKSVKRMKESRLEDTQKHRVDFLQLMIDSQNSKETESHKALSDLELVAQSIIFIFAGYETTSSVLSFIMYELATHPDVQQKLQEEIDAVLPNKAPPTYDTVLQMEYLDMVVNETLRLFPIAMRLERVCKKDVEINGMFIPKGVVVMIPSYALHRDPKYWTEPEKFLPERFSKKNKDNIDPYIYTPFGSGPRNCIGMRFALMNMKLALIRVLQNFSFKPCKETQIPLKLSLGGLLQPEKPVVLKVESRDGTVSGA

SH-SY5Y [3] = test: Induction of VGF gene expression in human SH-SY5Y cells at 3 uM after 24 hrs by qRT-PCR analysis relative to control; type: functional
SH-SY5Y [4] = test: Induction of VGF gene expression in human SH-SY5Y cells at 3 uM after 24 hrs by qRT-PCR analysis relative to SUN N8075; type: functional
SH-SY5Y [5] = test: Cytoprotective activity against tunicamycin-induced ER stress in human SH-SY5Y cells assessed as cell viability at 3 uM preincubated for 1 hr followed by tunicamycin addition measured after 48 hrs by WST-8 assay relative to SUN N8075; type: functional; details: read-out: Activity

| Drug metabolism [2] [pmol/min] | activity at 10 min, 10 µM (CYP3A4) [%] | Structure (SMILES) | viability at 3 µM (SH-SY5Y [1]) [%] | fold change (FC) (SH-SY5Y [3]) | Activity (SH-SY5Y [4]) [%] | viability at 3 µM (SH-SY5Y [5]) [%] |
| --- | --- | --- | --- | --- | --- | --- |
| 17 | 108 | Cc1cc(S(N)(=O)=O)ccc1OCC(F)CN1CCN(c2ccc(Cc3ccc(F)cc3)cc2)CC1 (stereo unspecified) |  |  | 114 | 105 |
| 34 | 76 | NC(=O)c1ccc(OCC(F)CN2CCN(c3ccc(Cc4ccc(F)cc4)cc3)CC2)cc1 (stereo unspecified) |  |  | 20 | 21 |
| 47 | 94 | Cl.Fc1ccc(Cc2ccc(N3CCN(CCCOc4ccc5ncccc5c4)CC3)cc2)cc1 |  |  | 52 | 75 |
| 122 | 70 | OC(COc1ccc2ncccc2c1)CN1CCN(c2ccc(Cc3ccc(F)cc3)cc2)CC1 (stereo unspecified) |  |  | 36 | 64 |
| 27 | 88 | O=C1CCc2cc(OCC(O)CN3CCN(c4ccc(Cc5ccc(F)cc5)cc4)CC3)ccc2N1 (stereo unspecified) |  |  | 32 | 33 |
| 79 | 59 | OC(COc1ccc2[nH]ccc2c1)CN1CCN(c2ccc(Cc3ccc(F)cc3)cc2)CC1 (stereo unspecified) |  |  | 30 | 43 |
| 28 |  | Cl.OC(COc1ccccc1)CN1CCN(c2ccc(Cc3ccc(F)cc3)cc2)CC1 (stereo unspecified) |  |  | 8 | 43 |
| 12 | 99 | NS(=O)(=O)c1ccc(OCC(F)CN2CCN(c3ccc(Cc4ccc(F)cc4)cc3)CC2)cc1 (stereo unspecified) |  |  | 71 | 88 |

Second part, the molecule before the results:

| Structure (SMILES) | Drug metabolism [2] [pmol/min] | activity at 10 min, 10 µM (CYP3A4) [%] | viability at 3 µM (SH-SY5Y [1]) [%] | fold change (FC) (SH-SY5Y [3]) | Activity (SH-SY5Y [4]) [%] | viability at 3 µM (SH-SY5Y [5]) [%] |
| --- | --- | --- | --- | --- | --- | --- |
| CS(=O)(=O)O.CS(=O)(=O)O.Cc1cc(OCC(O)CN2CCN(c3ccc(Cc4ccc(F)cc4)cc3)CC2)c(C)c(C)c1N (stereo unspecified) | 153 | 57 | 82 | 5.1 |  |  |
| Cl.Cl.Cl.Fc1ccc(Cc2ccc(N3CCN(CC(F)(F)COc4ccc5ncccc5c4)CC3)cc2)cc1 | 34 | 93 |  |  | 68 | 67 |
| Cl.Cl.Cl.Fc1ccc(Cc2ccc(N3CCN(CC(F)COc4ccncc4)CC3)cc2)cc1 (stereo unspecified) | < 10 | 101 |  |  | 13 | 13 |
| Cc1cc(OCC(F)CN2CCN(c3ccc(Cc4ccc(F)cc4)cc3)CC2)cc(C)n1.Cl.Cl.Cl (stereo unspecified) | 41 | 67 |  |  | 79 | 82 |
| Cc1cc(OC[C@@H](F)CN2CCN(c3ccc(Cc4ccc(F)cc4)cc3)CC2)cc(C)n1.Cl | 37 | 80 |  |  | 68 | 96 |
| Cc1cc(OC[C@H](F)CN2CCN(c3ccc(Cc4ccc(F)cc4)cc3)CC2)cc(C)n1.Cl | 71 | 83 |  |  | 78 | 93 |
| Cc1cc(OCC(F)CN2CCN(c3ccc(Cc4ccc(F)cc4)cc3)CC2)c(C)c(C)c1N.Cl.Cl.Cl (stereo unspecified) | 106 | 75 |  |  | 126 | 94 |
| Cc1cc(C)c(C)c(OCC(F)CN2CCN(c3ccc(Cc4ccc(F)cc4)cc3)CC2)c1.Cl.Cl (stereo unspecified) | 25 | 107 |  |  | 75 | 60 |
| Cc1cc(S(N)(=O)=O)c(C)c(C)c1OCC(F)CN1CCN(c2ccc(Cc3ccc(F)cc3)cc2)CC1 (stereo unspecified) | 32 | 92 |  |  | 172 | 106 |
| Cl.Cl.Cl.Fc1ccc(Cc2ccc(N3CCN(CC(F)COc4ccc5ncccc5c4)CC3)cc2)cc1 (stereo unspecified) | 79 | 82 |  |  | 77 | 89 |
